Source: US9718738B2 (priority 2014, dated 2017)

What was measured:
grain corn = conditions: in vivo
[1] = test system: long white bunching onions; conditions: in vivo

Substance: urea
- grain yield (grain corn): 180.5 bu/acre
- plant height after 6 weeks [1]: performing poorer than no nitrogen fertilizer at all
